Patent US10864154B2, “Skin care compositions and their applications” (SAMI LABS LIMITED, priority 2019, dated 2020)

Key:
Mushroom Tyrosinase = target: T1, Mushroom Tyrosinase (Agaricus bisporus, UniProt C7FF04); experiment: Tyrosinase inhibition assay (L-Tyrosine substrate, absorbance at 492 nm); format: biochemical; settings: EAA alone
T1 construct: purchased Sigma
Description: Tyrosinase acts on L-Tyrosine forming a pink colored complex, the intensity of which is measured at 492 nm. The Tyrosinase activity in the presence and absence of inhibitor is assayed spectrophotometrically at 492 nm using a Microplate reader.
Mushroom Tyrosinase enzyme is prepared by dissolving entire content in […], pH 6.5 pre-chilled enzyme buffer to get […]. Gentle shaking for five minutes aids in dissolution of enzyme. Aliquot the stock into vials of 100 μl each and keep at −80° until use for at least 2 months. Multiple freeze-thaw cycles of the enzyme must be avoided.
A stock of 2.50 mM L-Tyrosine Disodium salt (Sigma) is prepared in 1.5 mM phosphate buffer (pH 6.5) by dissolving 2.845 mg/5 ml.
Samples were dissolved in DMSO and further dilutions were carried out in buffer
The assay was performed in a 96 well clear microtitre plate. Different concentrations of the composition comprising ethyl-ascorbic acid and tetrahydrocurcuminoids were pre incubated with 10 μl of […] stock Solution of Mushroom Tyrosinase (f.c. 6 U/well) at 37° C. for 10 minutes. The reaction is initiated by adding 2.5 mM L-Tyrosine disodium and the absorbance is read immediately every minute until 15 minutes using the microplate reader at 492 nm. A test blank well was prepared for each sample without the enzyme. Enzyme reaction with vehicle alone served as a control for enzyme activity. Kojic acid was used as a positive control.
The results are expressed as IC50 values using Graphpad prism software. The percentage of inhibition of melanin is calculated as follows,
Where C-absorbance in control and T-absorbance in test sample

[1] = system: B16F1 mouse melanoma cells; experiment: Melanogenesis inhibition in α-MSH stimulated B16F1 cells (melanin at 405 nm); format: cell-based; settings: EAA alone, 72 hours
Description: The intracellular melanin in B16F1 mouse melanoma cells is extracted by 1N NaOH. The brown colored melanin thus extracted is estimated at 405 nm. The synthesis of melanin is inhibited in the presence of inhibitor which results in reduced absorbance at 405 nm.
MSH Stock was prepared at 1 mg/ml in distilled water. MSH at a final concentration of 1 nM was used to stimulate melanogenesis
B16F1 mouse melanoma cells were cultured for 24 hours in a 96 well microtiter plate at a seeding density of 5000 cells per well. Cells are treated with varying non cytotoxic concentrations of the sample over a period of 72 hours along with melanin stimulating hormone (∝-MSH) to induce the synthesis of melanin pigment. Untreated cells and cells without ∝-MSH addition were used as positive and negative control. The melanin produced by the cells was extracted by 1N NaOH and the absorbance was read at 405 nm in a Microplate reader. The inhibitory effect of the sample is calculated based on the degree of inhibition of melanin formation.
The results are expressed as IC50 values using Graph pad prism software. The percentage of inhibition of melanin is calculated as follows,
[formula] Where C-absorbance due to melanin in untreated cells
T-absorbance due to melanin in sample treated cells

T1 sequence (C7FF04 1-392 limits assumed): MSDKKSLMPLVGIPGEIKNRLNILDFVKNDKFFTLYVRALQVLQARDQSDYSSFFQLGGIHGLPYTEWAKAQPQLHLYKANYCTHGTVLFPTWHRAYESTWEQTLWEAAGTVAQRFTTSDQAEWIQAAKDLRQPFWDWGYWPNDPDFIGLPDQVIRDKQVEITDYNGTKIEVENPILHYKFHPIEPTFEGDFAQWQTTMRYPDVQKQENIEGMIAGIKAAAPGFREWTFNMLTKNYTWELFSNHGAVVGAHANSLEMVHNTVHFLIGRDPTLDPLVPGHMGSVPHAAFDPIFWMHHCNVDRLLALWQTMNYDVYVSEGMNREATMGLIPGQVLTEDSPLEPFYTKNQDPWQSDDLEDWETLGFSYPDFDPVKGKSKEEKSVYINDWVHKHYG

Question: What does the source list for `CCOC1=C(O)C(=O)O[C@@H]1[C@@H](O)CO` [Ethyl-ascorbic acid (EAA), 3-O-ethyl-ascorbic acid]?
Answer: % Inhibition of tyrosinase activity (Mushroom Tyrosinase; 62.5 μg/ml): Nil; % Inhibition of tyrosinase activity (Mushroom Tyrosinase; 125 μg/ml): Nil; inhibition at 250 µg/mL (Mushroom Tyrosinase; 250 μg/ml): 11.6%; inhibition at 500 µg/mL (Mushroom Tyrosinase; 500 μg/ml): 28.3%; % Inhibition of melanogenesis ([1]; 0.625 μg/ml): Nil; % Inhibition of melanogenesis ([1]; 0.625 μg/ml, listed as ethyl-ascorbic acid): did not show any melanogenesis inhibition; % Inhibition of melanogenesis ([1]; 1.25 μg/ml): Nil
